Results published in the NIST ThermoML archive (doi:10.1021/je800888n).
± gives the expanded uncertainty stated by the source.

Tests used:
[1] = Liquid, Closed cell (Static) method
[2] = excess molar enthalpy (molar enthalpy of mixing); xn = mol fraction of the nth substance listed; conditions: 323.15 K, 101 kPa, Liquid, Flow calorimetry

Cc1ccccc1 [toluene]
[1]
Conditions	vapor or sublimation pressure [kPa]
253.83 K	0.2392 ± 0.0036
263.64 K	0.4837 ± 0.0065
273.15 K	0.9082 ± 0.017
273.47 K	0.9254 ± 0.012
283.15 K	1.666 ± 0.021
283.32 K	1.68 ± 0.012
293.15 K	2.911 ± 0.025
293.24 K	2.925 ± 0.017
293.26 K	2.925 ± 0.017
298.15 K	3.785 ± 0.03
298.25 K	3.803 ± 0.02
303.15 K	4.872 ± 0.035
303.23 K	4.894 ± 0.025
313.15 K	7.848 ± 0.049
313.19 K	7.872 ± 0.037
313.22 K	7.874 ± 0.037
323.15 K	12.22 ± 0.071
323.22 K	12.24 ± 0.056
333.15 K	18.45 ± 0.1
333.2 K	18.57 ± 0.083
343.15 K	27.1 ± 0.15
343.16 K	27.2 ± 0.12
353.13 K	38.84 ± 0.17
353.15 K	38.84 ± 0.2
363.08 K	54.13 ± 0.24
363.15 K	54.42 ± 0.28

CCCC(=O)O [butanoic acid] + Cc1ccccc1
[2]
Conditions	excess molar enthalpy [kcal/mol]
x1 = 0.0289	0.00659 ± 0.00098
x1 = 0.0576	0.00663 ± 0.00098
x1 = 0.1144	0.00368 ± 0.00098
x1 = 0.1702	-0.000361 ± 0.00098
x1 = 0.2251	-0.00433 ± 0.00098
x1 = 0.2792	-0.00731 ± 0.00098
x1 = 0.3325	-0.0104 ± 0.00098
x1 = 0.3849	-0.0129 ± 0.00098
x1 = 0.4366	-0.0149 ± 0.001
x1 = 0.4874	-0.0163 ± 0.001
x1 = 0.5375	-0.0174 ± 0.001
x1 = 0.5869	-0.0176 ± 0.001
x1 = 0.6355	-0.0169 ± 0.001
x1 = 0.6834	-0.0161 ± 0.001
x1 = 0.7306	-0.0147 ± 0.001
x1 = 0.7771	-0.013 ± 0.00098
x1 = 0.823	-0.0107 ± 0.00098
x1 = 0.8682	-0.00798 ± 0.00098
x1 = 0.9127	-0.00545 ± 0.00098
x1 = 0.9567	-0.00251 ± 0.00098
x1 = 0.9784	-0.00114 ± 0.00098

CCCC(=O)O [butanoic acid]
[1]
Conditions	vapor or sublimation pressure [kPa]
273.15 K	0.0137 ± 0.0017
283.15 K	0.0324 ± 0.0036
293.15 K	0.0725 ± 0.0077
293.29 K	0.072 ± 0.0073
298.15 K	0.1063 ± 0.011
298.25 K	0.1052 ± 0.011
303.15 K	0.1541 ± 0.016
303.28 K	0.1545 ± 0.016
313.15 K	0.3128 ± 0.007
313.22 K	0.3155 ± 0.0045
323.15 K	0.6084 ± 0.012
323.2 K	0.6183 ± 0.0082
333.15 K	1.138 ± 0.02
333.18 K	1.153 ± 0.01
343.15 K	2.055 ± 0.022
343.18 K	2.073 ± 0.013
353.1 K	3.582 ± 0.019
353.15 K	3.593 ± 0.029
363.08 K	5.973 ± 0.029
363.15 K	6.095 ± 0.042
